Data reported in PubChem BioAssay AID248 (DTP/NCI, 2004).
Values joined by “and” are separate entries in the source; they are usually repeats but may differ in a detail not shown here. Equal values may be shown once. Toxic doses and inconclusive results are not listed. Cut-off read from the data, not from the text of the source: active = T/C of 150% or more; inactive = T/C below 125%.

Tested on: L1210 leukemia ip in BDF1 mice, survival T/C
Assay: NCI In Vivo Anticancer Drug Screen. Data for tumor model L1210 Leukemia (intraperitoneal) in B6D2F1 (BDF1) mice
Conditions: endpoint: mean survival time, higher = longer survival
Procedure, shortened: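 Tumor was transplanted into mice, which were then dosed with test compound or vehicle alone. Survival was recorded for each group, and the treated figure was expressed relative to the control figure.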

[1] = dose: 25.0 mg/kg/injection, schedule: Q01DX009 (ip), vehicle: saline
[2] = dose: 25.0 mg/kg/injection, schedule: Q04DX002 (ip), vehicle: saline with Tween-80
[3] = dose: 50.0 mg/kg/injection, schedule: Q01DX009 (ip), vehicle: saline
[4] = dose: 50.0 mg/kg/injection, schedule: Q04DX002 (ip), vehicle: saline with Tween-80
[5] = dose: 100.0 mg/kg/injection, schedule: Q04DX002 (ip), vehicle: saline with Tween-80
[6] = dose: 100.0 mg/kg/injection, schedule: Q01DX009 (ip), vehicle: Klucel (hydroxypropylcellulose) (HPC)
[7] = dose: 100.0 mg/kg/injection, schedule: Q04DX003 (ip), vehicle: Klucel (hydroxypropylcellulose) (HPC)
[8] = dose: 200.0 mg/kg/injection, schedule: Q01DX009 (ip), vehicle: Klucel (hydroxypropylcellulose) (HPC)
[9] = dose: 200.0 mg/kg/injection, schedule: Q04DX003 (ip), vehicle: Klucel (hydroxypropylcellulose) (HPC)
[10] = dose: 400.0 mg/kg/injection, schedule: Q01DX009 (ip), vehicle: Klucel (hydroxypropylcellulose) (HPC)
[11] = dose: 400.0 mg/kg/injection, schedule: Q04DX003 (ip), vehicle: Klucel (hydroxypropylcellulose) (HPC)
[12] = dose: 100.0 mg/kg/injection, schedule: Q01DX001 (ip), vehicle: carboxymethylcellulose (CMC)
[13] = dose: 100.0 mg/kg/injection, schedule: Q04DX003 (ip), vehicle: saline

Measured: T/C

CCCCN(CCCC)CC(O)c1ccccc1 (configuration not stated)
inactive: dose: 25.0 mg/kg/injection, schedule: Q01DX005 (ip), vehicle: saline 112 % of control | [1] 95 % of control | [2] 102 % of control | dose: 50.0 mg/kg/injection, schedule: Q01DX005 (ip), vehicle: saline 108 % of control | [3] 107 % of control | [4] 106 % of control | dose: 100.0 mg/kg/injection, schedule: Q01DX005 (ip), vehicle: saline 101 % of control | [5] 93 % of control

O=C1C=CC(=O)N1CCCCN1C(=O)C=CC1=O
inactive: dose: 11.1 mg/kg/injection, schedule: Q01DX Z (ip), vehicle: methylcellulose (MC) 96 % of control | dose: 16.6 mg/kg/injection, schedule: Q01DX Z (ip), vehicle: methylcellulose (MC) 106 % of control | dose: 25.0 mg/kg/injection, schedule: Q01DX Z (ip), vehicle: methylcellulose (MC) 93 % of control

Cc1cc(C)c(N(CC(=O)O)S(=O)(=O)c2ccccc2)c(C)c1I
inactive: dose: 75.0 mg/kg/injection, schedule: Q04DX003 (ip), vehicle: Klucel (hydroxypropylcellulose) (HPC) 94 % of control

COc1ncnc2nc[nH]c12
inactive: dose: 50.0 mg/kg/injection, schedule: Q01DX001 (ip), vehicle: Klucel (hydroxypropylcellulose) (HPC) 97 % of control | dose: 100.0 mg/kg/injection, schedule: Q01DX001 (ip), vehicle: Klucel (hydroxypropylcellulose) (HPC) 103 % of control | [6] 101 % of control | [7] 97 % of control | dose: 200.0 mg/kg/injection, schedule: Q01DX001 (ip), vehicle: Klucel (hydroxypropylcellulose) (HPC) 98 % of control | [8] 102 % of control | [9] 105 % of control | dose: 400.0 mg/kg/injection, schedule: Q01DX001 (ip), vehicle: Klucel (hydroxypropylcellulose) (HPC) 101 % of control | [10] 98 % of control | [11] 106 % of control

COc1ccc2[nH]c(=O)ccc2c1
inactive: dose: 300.0 mg/kg/injection, schedule: Q01DX001 (ip), vehicle: Klucel (hydroxypropylcellulose) (HPC) 98 % of control

[Se]c1ncnc2nc[nH]c12
inactive: dose: 25.0 mg/kg/injection, schedule: Q01DX001 (ip), vehicle: carboxymethylcellulose (CMC) 103 % of control | dose: 50.0 mg/kg/injection, schedule: Q01DX001 (ip), vehicle: carboxymethylcellulose (CMC) 93 % of control | [12] 121 % of control

COc1cc(OC)c(NC(=O)Nc2ccc([N+](=O)[O-])cc2OC)cc1Cl
inactive: [6] 101 % of control | [8] 95 % of control | [10] 97 % of control

O=C1CC2CCCC1C2 (configuration not stated)
inactive: dose: 100.0 mg/kg/injection, schedule: Q01DX001 (ip), vehicle: saline 98 % of control | dose: 200.0 mg/kg/injection, schedule: Q01DX001 (ip), vehicle: saline 109 % of control | dose: 400.0 mg/kg/injection, schedule: Q01DX001 (ip), vehicle: saline 112 % of control

CC(=O)OC1CC2(CO2)C2CC=C(C)C2C2OC(=O)C(C)C12 (configuration not stated)
inactive: dose: 12.5 mg/kg/injection, schedule: Q04DX002 (ip), vehicle: saline 110 % of control | dose: 25.0 mg/kg/injection, schedule: Q04DX002 (ip), vehicle: saline 100 % of control | dose: 50.0 mg/kg/injection, schedule: Q04DX002 (ip), vehicle: saline 95 % of control | dose: 100.0 mg/kg/injection, schedule: Q04DX002 (ip), vehicle: Klucel (hydroxypropylcellulose) (HPC) 90 % of control | dose: 200.0 mg/kg/injection, schedule: Q04DX002 (ip), vehicle: Klucel (hydroxypropylcellulose) (HPC) 100 % of control

COC(=O)c1csc(CCN)n1
inactive: [13] 102 % of control | dose: 200.0 mg/kg/injection, schedule: Q04DX003 (ip), vehicle: saline 94 % of control | dose: 400.0 mg/kg/injection, schedule: Q04DX003 (ip), vehicle: saline 97 % of control

Cn1nnc2c1C(=O)c1ccccc1C2=O
inactive: dose: 100.0 mg/kg/injection, schedule: Q04DX003 (ip), vehicle: other 97 % of control | dose: 200.0 mg/kg/injection, schedule: Q04DX003 (ip), vehicle: other 97 % of control

OCC1C2CCC(C2)C1c1ccccc1 (configuration not stated)
inactive: dose: 9.38 mg/kg/injection, schedule: Q01DX001 (ip), vehicle: saline 103 % of control

CN(C)C1CC[N-]CC1.CN(C)C1CC[N-]CC1.[Cl][Pt+2][Cl]
inactive: [1] 110 % of control | [3] 110 % of control | [13] 92 % of control

S=c1c2ccccc2sn1-c1ccccc1
inactive: [12] 92 % of control | dose: 200.0 mg/kg/injection, schedule: Q01DX001 (ip), vehicle: carboxymethylcellulose (CMC) 94 % of control | dose: 400.0 mg/kg/injection, schedule: Q01DX001 (ip), vehicle: carboxymethylcellulose (CMC) 87 % of control

COc1ccc(NC(C)=O)c(C)c1
inactive: dose: 100.0 mg/kg/injection, schedule: Q01DX009 (ip), vehicle: saline with Tween-80 99 % of control | dose: 100.0 mg/kg/injection, schedule: Q04DX003 (ip), vehicle: saline with Tween-80 112 % of control | dose: 200.0 mg/kg/injection, schedule: Q01DX009 (ip), vehicle: saline with Tween-80 96 % of control | dose: 200.0 mg/kg/injection, schedule: Q04DX003 (ip), vehicle: saline with Tween-80 119 % of control | dose: 400.0 mg/kg/injection, schedule: Q01DX009 (ip), vehicle: saline with Tween-80 103 % of control | dose: 400.0 mg/kg/injection, schedule: Q04DX003 (ip), vehicle: saline with Tween-80 96 % of control

CCN(CC)CCCC(C)Nc1c2ccccc2nc2c(Cl)cccc12 (configuration not stated)
inactive: dose: 20.0 mg/kg/injection, schedule: Q01DX Z (ip), vehicle: methylcellulose (MC) 100 % of control and 86 % of control | dose: 30.0 mg/kg/injection, schedule: Q01DX Z (ip), vehicle: methylcellulose (MC) 92 % of control and 87 % of control | dose: 45.0 mg/kg/injection, schedule: Q01DX Z (ip), vehicle: methylcellulose (MC) 95 % of control and 101 % of control | dose: 67.0 mg/kg/injection, schedule: Q01DX Z (ip), vehicle: methylcellulose (MC) 91 % of control | [7] 102 % of control

CCC(C)C(NC(C)=O)C(=O)O (configuration not stated)
inactive: [5] 102 % of control | [7] 88 % of control | dose: 200.0 mg/kg/injection, schedule: Q04DX002 (ip), vehicle: saline with Tween-80 94 % of control | [9] 91 % of control | dose: 400.0 mg/kg/injection, schedule: Q04DX002 (ip), vehicle: saline with Tween-80 102 % of control | [11] 89 % of control

O=C(C[n+]1cccc(C(=O)Nc2ccccc2)c1)Nc1ccccc1
inactive: [13] 95 % of control

CC(=O)Nc1cc(Cl)c(Cl)cc1N
inactive: [6] 95 % of control | [8] 98 % of control | [10] 96 % of control

Cc1ccc(S(=O)(=O)OCCOS(=O)(=O)c2ccc(C)cc2)cc1
inactive: [7] 90 % of control | [9] 87 % of control

C[CH2][Pb]([Br])([CH2]C)[CH2]C
inactive: dose: 6.25 mg/kg/injection, schedule: Q01DX009 (ip), vehicle: saline with Tween-80 103 % of control | dose: 12.5 mg/kg/injection, schedule: Q01DX009 (ip), vehicle: saline with Tween-80 103 % of control | dose: 25.0 mg/kg/injection, schedule: Q01DX009 (ip), vehicle: saline with Tween-80 94 % of control and 103 % of control | [2] 93 % of control | [4] 99 % of control | [5] 96 % of control

CC(C)(C)c1ccc(OC(=O)NCCCCCCNC(=O)Oc2ccc(C(C)(C)C)cc2)cc1
inactive: dose: 100.0 mg/kg/injection, schedule: Q01DX009 (ip), vehicle: other 96 % of control | dose: 200.0 mg/kg/injection, schedule: Q01DX009 (ip), vehicle: other 91 % of control | dose: 400.0 mg/kg/injection, schedule: Q01DX009 (ip), vehicle: other 87 % of control

Cc1ccc(S(=O)(=O)N(SSN(c2ccccc2)S(=O)(=O)c2ccc(C)cc2)c2ccccc2)cc1
inactive: dose: 100.0 mg/kg/injection, schedule: Q04DX002 (ip), vehicle: carboxymethylcellulose (CMC) 95 % of control and 98 % of control | dose: 200.0 mg/kg/injection, schedule: Q04DX002 (ip), vehicle: carboxymethylcellulose (CMC) 95 % of control and 101 % of control | dose: 400.0 mg/kg/injection, schedule: Q04DX002 (ip), vehicle: carboxymethylcellulose (CMC) 95 % of control and 106 % of control

O=C(O)C1=C(C(=O)O)C2CCCC3C4CCCCC4N(N1)C23 (configuration not stated)
inactive: dose: 75.0 mg/kg/injection, schedule: Q01DX001 (ip), vehicle: acetone 117 % of control | dose: 150.0 mg/kg/injection, schedule: Q01DX001 (ip), vehicle: acetone 104 % of control | dose: 300.0 mg/kg/injection, schedule: Q01DX001 (ip), vehicle: acetone 118 % of control
